The Kinase Knowledgebase extract (Sharma et al. 2016)

Tests used:
PIK3CB (Human) = PIK3CB (Human) (UniProt P42338); experiment: Enzyme Assay
PIK3CD (Human) [1] = molecular target: PIK3CD (Human) (UniProt O00329); experiment: Enzyme Assay
PIK3CG (human) = PIK3CG (human) (UniProt P48736); experiment: Enzyme Assay
PIK3CA (human) = PIK3CA (human) (UniProt P42336); experiment: Enzyme Assay
PIK3CD (Human) [2] = molecular target: PIK3CD (Human) (UniProt O00329); experiment: Cell-Based Assay; settings: raji

Sequence of PIK3CB (Human) (P42338 whole entry, looked up): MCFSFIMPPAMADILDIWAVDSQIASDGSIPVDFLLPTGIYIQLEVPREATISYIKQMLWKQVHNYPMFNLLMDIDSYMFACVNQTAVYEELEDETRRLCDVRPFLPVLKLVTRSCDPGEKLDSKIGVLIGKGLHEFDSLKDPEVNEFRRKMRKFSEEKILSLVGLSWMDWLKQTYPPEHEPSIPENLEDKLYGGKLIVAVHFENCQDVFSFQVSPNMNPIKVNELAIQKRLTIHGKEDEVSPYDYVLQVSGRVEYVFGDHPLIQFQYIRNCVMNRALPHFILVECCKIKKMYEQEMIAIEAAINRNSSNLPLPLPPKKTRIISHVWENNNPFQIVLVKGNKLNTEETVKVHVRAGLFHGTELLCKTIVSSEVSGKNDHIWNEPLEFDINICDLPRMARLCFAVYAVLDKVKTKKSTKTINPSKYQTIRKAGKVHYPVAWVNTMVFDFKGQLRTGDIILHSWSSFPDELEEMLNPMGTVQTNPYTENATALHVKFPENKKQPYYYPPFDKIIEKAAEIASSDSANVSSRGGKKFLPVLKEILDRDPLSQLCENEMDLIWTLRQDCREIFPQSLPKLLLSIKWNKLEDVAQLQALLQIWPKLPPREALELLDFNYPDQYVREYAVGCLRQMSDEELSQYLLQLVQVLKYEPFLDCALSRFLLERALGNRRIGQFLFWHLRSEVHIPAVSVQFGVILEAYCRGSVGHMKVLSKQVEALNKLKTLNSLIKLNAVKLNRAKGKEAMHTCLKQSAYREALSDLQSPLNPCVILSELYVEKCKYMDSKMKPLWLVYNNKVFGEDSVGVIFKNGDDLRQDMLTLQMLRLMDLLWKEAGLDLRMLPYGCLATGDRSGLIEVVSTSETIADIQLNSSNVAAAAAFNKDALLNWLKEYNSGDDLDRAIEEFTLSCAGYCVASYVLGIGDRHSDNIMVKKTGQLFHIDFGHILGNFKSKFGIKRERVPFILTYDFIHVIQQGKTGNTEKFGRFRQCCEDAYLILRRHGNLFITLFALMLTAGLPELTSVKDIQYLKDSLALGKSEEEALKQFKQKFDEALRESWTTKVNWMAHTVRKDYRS
Sequence of PIK3CA (human) (P42336 whole entry, looked up): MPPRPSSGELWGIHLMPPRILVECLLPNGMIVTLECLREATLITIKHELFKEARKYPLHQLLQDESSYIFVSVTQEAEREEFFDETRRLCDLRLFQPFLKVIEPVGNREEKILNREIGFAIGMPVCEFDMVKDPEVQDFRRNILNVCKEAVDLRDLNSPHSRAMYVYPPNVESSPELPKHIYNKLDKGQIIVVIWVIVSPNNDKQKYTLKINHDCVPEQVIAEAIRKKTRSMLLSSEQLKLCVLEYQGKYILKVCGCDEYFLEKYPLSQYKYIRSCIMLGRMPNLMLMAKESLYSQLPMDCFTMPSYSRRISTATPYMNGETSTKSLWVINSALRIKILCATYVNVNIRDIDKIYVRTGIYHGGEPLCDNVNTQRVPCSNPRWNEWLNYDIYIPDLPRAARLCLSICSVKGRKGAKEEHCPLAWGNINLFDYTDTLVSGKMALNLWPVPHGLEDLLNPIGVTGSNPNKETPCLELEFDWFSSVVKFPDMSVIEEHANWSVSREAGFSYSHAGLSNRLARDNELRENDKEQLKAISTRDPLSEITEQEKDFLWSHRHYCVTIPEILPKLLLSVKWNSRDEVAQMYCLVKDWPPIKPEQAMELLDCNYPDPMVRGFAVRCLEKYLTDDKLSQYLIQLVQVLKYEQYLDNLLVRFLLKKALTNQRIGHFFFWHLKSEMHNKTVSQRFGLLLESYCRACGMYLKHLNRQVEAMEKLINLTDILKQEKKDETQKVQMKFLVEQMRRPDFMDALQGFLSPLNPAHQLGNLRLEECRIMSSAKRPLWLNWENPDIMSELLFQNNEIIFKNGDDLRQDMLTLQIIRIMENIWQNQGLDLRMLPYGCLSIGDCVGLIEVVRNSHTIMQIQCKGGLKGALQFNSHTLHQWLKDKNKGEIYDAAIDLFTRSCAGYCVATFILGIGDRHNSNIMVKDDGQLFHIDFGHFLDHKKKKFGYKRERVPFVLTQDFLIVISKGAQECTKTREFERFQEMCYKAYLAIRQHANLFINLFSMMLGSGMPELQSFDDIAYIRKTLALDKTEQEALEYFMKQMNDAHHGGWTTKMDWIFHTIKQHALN
Sequence of PIK3CD (Human) (O00329 whole entry, looked up): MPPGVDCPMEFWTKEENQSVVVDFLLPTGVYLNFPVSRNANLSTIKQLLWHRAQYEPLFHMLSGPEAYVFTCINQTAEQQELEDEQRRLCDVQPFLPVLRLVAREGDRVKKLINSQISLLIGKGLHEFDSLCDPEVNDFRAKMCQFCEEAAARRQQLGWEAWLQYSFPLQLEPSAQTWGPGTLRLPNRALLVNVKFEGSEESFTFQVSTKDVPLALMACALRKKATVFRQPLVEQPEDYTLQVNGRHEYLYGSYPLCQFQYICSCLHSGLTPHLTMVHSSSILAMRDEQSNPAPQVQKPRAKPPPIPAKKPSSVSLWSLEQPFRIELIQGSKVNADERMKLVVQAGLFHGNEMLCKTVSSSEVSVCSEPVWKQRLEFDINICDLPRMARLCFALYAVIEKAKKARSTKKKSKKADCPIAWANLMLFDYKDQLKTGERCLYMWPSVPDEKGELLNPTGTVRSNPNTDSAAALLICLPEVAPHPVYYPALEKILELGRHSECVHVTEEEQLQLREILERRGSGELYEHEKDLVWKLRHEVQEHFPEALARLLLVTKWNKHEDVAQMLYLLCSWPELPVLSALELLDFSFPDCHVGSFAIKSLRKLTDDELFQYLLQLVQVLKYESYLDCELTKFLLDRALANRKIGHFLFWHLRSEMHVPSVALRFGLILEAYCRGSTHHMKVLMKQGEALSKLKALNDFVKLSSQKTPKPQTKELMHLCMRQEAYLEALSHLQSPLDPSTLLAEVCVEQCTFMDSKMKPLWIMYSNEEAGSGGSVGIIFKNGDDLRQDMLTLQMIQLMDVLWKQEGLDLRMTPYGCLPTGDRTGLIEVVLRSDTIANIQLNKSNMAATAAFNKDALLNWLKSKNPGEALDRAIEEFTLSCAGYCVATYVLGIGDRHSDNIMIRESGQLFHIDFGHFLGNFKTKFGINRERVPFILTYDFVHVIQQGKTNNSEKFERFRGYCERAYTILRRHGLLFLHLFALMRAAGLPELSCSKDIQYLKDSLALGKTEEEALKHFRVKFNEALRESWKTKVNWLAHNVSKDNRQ
Sequence of PIK3CG (human) (P48736 whole entry, looked up): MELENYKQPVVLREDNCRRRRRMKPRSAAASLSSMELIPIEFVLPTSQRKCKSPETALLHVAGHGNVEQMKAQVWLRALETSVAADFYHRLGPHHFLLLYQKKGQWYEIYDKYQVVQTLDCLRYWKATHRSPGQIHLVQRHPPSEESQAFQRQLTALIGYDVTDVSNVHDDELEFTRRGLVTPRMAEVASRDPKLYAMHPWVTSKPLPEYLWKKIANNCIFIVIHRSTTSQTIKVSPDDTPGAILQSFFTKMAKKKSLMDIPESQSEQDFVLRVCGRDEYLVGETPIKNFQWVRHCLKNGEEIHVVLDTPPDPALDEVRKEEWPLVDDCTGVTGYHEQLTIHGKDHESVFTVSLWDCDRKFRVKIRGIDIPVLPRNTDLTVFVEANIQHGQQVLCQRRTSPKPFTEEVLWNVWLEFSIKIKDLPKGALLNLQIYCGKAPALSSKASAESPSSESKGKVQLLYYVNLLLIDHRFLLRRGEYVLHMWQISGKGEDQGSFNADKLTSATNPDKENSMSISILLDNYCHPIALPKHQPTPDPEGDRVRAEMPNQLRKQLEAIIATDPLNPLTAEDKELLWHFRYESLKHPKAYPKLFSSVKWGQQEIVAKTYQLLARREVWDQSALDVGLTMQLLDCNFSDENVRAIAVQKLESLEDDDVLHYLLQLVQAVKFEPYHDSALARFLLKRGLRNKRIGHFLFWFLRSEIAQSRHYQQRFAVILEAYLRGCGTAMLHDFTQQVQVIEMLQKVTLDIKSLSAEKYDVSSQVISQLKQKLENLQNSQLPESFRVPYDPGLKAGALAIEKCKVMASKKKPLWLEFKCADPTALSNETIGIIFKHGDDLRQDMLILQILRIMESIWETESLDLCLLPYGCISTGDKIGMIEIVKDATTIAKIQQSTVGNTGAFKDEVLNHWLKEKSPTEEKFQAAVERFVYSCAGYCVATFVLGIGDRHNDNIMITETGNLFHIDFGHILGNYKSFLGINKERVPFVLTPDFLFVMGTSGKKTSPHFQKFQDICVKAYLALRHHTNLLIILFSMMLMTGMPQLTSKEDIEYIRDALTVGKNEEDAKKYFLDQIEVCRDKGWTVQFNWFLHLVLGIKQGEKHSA

Row | Compound | IC50 (PIK3CB (Human)) | IC50 (PIK3CD (Human) [1]) | IC50 (PIK3CG (human)) | IC50 (PIK3CA (human)) | IC50 (PIK3CD (Human) [2])
1 | C[C@H](NC(=O)c1nc(-c2cccc(S(=O)(=O)N3CCOCC3)c2)cnc1N)c1cc2cccc(Cl)c2c(=O)n1-c1ccccc1 | ≥ 10 µM | ≥ 10 µM | ≥ 10 µM | ≥ 10 µM | –
2 | C#Cc1cccc2cc([C@H](C)NC(=O)c3c(N)nn4cccnc34)n(-c3ccccc3)c(=O)c12 | 0.1 to 1 µM | 0.1 to 1 µM | < 0.1 µM | 0.1 to 1 µM | < 0.1 µM
3 | C[C@H](NC(=O)c1nc(-c2cncc(NS(C)(=O)=O)c2)cnc1N)c1cc2cccc(Cl)c2c(=O)n1C1CC1 | < 0.1 µM | < 0.1 µM | < 0.1 µM | < 0.1 µM | –
4 | C[C@H](NC(=O)c1nccnc1N)c1nc2cccc(Cl)c2c(=O)n1-c1ccccc1 | – | < 0.1 µM | 0.1 to 1 µM | ≥ 10 µM | –
5 | COc1cccc(-c2cnc(N)c(C(=O)N[C@@H](C)c3cc4cccc(Cl)c4c(=O)n3-c3ccccc3)n2)c1 | ≥ 10 µM | ≥ 10 µM | ≥ 10 µM | ≥ 10 µM | –
6 | C[C@H](NC(=O)c1c(N)nn2cccnc12)c1cc2cccc(N3CCOCC3)c2c(=O)n1-c1ccccc1 | ≥ 10 µM | ≥ 10 µM | – | ≥ 10 µM | –
7 | C[C@H](NC(=O)c1c(N)nn2cccnc12)c1cc2cccc(Cl)c2c(=O)n1CCN(C)C | < 0.1 µM | < 0.1 µM | – | ≥ 10 µM | < 0.1 µM
8 | CC(C)Oc1ccc(-c2cnc(N)c(C(=O)N[C@@H](C)c3cc4cccc(Cl)c4c(=O)n3-c3ccccc3)n2)cc1 | ≥ 10 µM | ≥ 10 µM | – | ≥ 10 µM | ≥ 10 µM
9 | CC(=O)Nc1ncc(-c2cccc(NS(C)(=O)=O)c2)nc1C(=O)N[C@@H](C)c1cc2cccc(Cl)c2c(=O)n1C | ≥ 10 µM | ≥ 10 µM | ≥ 10 µM | ≥ 10 µM | –
10 | C[C@H](NC(=O)c1nccnc1N)c1cc2cccc(-c3cccnc3)c2c(=O)n1-c1ccccc1 | ≥ 10 µM | < 0.1 µM | – | ≥ 10 µM | < 0.1 µM
11 | Nc1nn2cccnc2c1C(=O)NCc1cc2cccc(Cl)c2c(=O)n1-c1ccccc1 | ≥ 10 µM | ≥ 10 µM | ≥ 10 µM | ≥ 10 µM | –
12 | C[C@H](NC(=O)c1nc(-c2ccccc2)cnc1N)c1cc2cccc(Cl)c2c(=O)n1-c1ccccc1 | ≥ 10 µM | ≥ 10 µM | – | ≥ 10 µM | 0.1 to 1 µM
13 | C[C@H](NC(=O)c1nccnc1N)c1cc2cccc(-c3cc[nH]n3)c2c(=O)n1-c1ccccc1 | ≥ 10 µM | 0.1 to 1 µM | – | ≥ 10 µM | < 0.1 µM
14 | CC(C)Oc1ccc(-c2cnc(N)c(C(=O)N[C@@H](C)c3cc4cccc(Cl)c4c(=O)n3-c3ccccc3)n2)cc1Cl | ≥ 10 µM | ≥ 10 µM | – | ≥ 10 µM | ≥ 10 µM
15 | C[C@H](NC(=O)c1c(N)nn2cccnc12)c1cc2cccc(N(C)C)c2c(=O)n1-c1ccccc1 | ≥ 10 µM | ≥ 10 µM | – | ≥ 10 µM | –
16 | C[C@H](NC(=O)c1c(N)nn2cccnc12)c1nn2ccc(-c3cnn(C)c3)c2c(=O)n1-c1ccccc1 | ≥ 10 µM | ≥ 10 µM | ≥ 10 µM | ≥ 10 µM | –
17 | C[C@H](NC(=O)c1c(N)nn2cccnc12)c1cc2cccc(O)c2c(=O)n1-c1ccccc1 | – | ≥ 10 µM | – | ≥ 10 µM | 0.1 to 1 µM
18 | COc1cc(-c2cccc3cc([C@H](C)NC(=O)c4c(N)nn5cccnc45)n(C4CCCCC4)c(=O)c23)ccn1 | ≥ 10 µM | ≥ 10 µM | – | ≥ 10 µM | –
19 | CC(C)Nc1cccc2cc([C@H](C)NC(=O)c3c(N)nn4cccnc34)n(-c3ccccc3)c(=O)c12 | ≥ 10 µM | ≥ 10 µM | ≥ 10 µM | ≥ 10 µM | –
20 | C[C@H](NC(=O)c1nc(-c2ccc(S(C)(=O)=O)cc2)cnc1N)c1cc2cccc(Cl)c2c(=O)n1-c1ccccc1 | ≥ 10 µM | ≥ 10 µM | – | ≥ 10 µM | –
21 | C[C@H](NC(=O)c1c(N)nn2cccnc12)c1cc2cccc(NCC(F)(F)F)c2c(=O)n1-c1ccccc1 | ≥ 10 µM | ≥ 10 µM | – | ≥ 10 µM | 0.1 to 1 µM
22 | C[C@H](NC(=O)c1c(N)nn2cccnc12)c1cc2cccc(NC3CCCCC3)c2c(=O)n1-c1ccccc1 | ≥ 10 µM | ≥ 10 µM | ≥ 10 µM | ≥ 10 µM | –
23 | C[C@H](NC(=O)c1c(N)nn2cccnc12)c1cc2cccc(Cl)c2c(=O)n1CC(=O)N(C)C | – | ≥ 10 µM | ≥ 10 µM | ≥ 10 µM | –
24 | C[C@H](NC(=O)c1cc(-c2cccc(NS(C)(=O)=O)c2)cnc1N)c1cc2cccc(Cl)c2c(=O)n1-c1ccccc1 | ≥ 10 µM | ≥ 10 µM | ≥ 10 µM | ≥ 10 µM | –
25 | C[C@H](NC(=O)c1c(N)nn2c1NCCC2)c1cc2cccc(Cl)c2c(=O)n1-c1ccccc1 | ≥ 10 µM | ≥ 10 µM | ≥ 10 µM | ≥ 10 µM | –
26 | COc1cc(-c2cccc3nc([C@H](C)NC(=O)c4c(N)nn5cccnc45)n(-c4ccccc4)c(=O)c23)ccn1 | – | 0.1 to 1 µM | < 0.1 µM | 0.1 to 1 µM | < 0.1 µM
